Series [1] deals with trypomastigote forms of the parasite (Dm28c). As to the kind of experiment: microbe, parasite or virus in culture. The format is cell-based. How it is done: Cell-derived trypomastigotes (Dm28c) were obtained from the supernatant of infected Vero cell cultures. Vero cells (9 × 10^5 cells/mL) and trypomastigotes were seeded at a ratio of 1:10 into culture bottles (75 cm^2) containing DMEM. After 4 h of incubation, the bottles were washed to remove unadhered trypomastigotes and incubated for another 96 h under CO2 atmosphere at 37°C. After 96 h of incubation, new trypomastigote forms were collected from the supernatant and used to perform the assays.
The lysis assay was performed in 96-well plates in technical triplicates (4 concentrations within the range 4–250 μM for butanolides and 200–1,600 μM for benznidazole), and the trypomastigotes (1 x 10^6 parasites/well) were incubated in 200 μL of DMEM (supplemented with 10% FBS, 100 μg/mL streptomycin, and 100 IU/mL penicillin) with the compounds at 37°C for 4 h. The test, negative control (1% DMSO), and positive control (benznidazole) parasites were fixed and counted in Neubauer's chamber.
(§1) The 50% cytotoxic concentration (CC50), x % inhibitory concentration (ICx = IC25, IC50, IC75, or IC90), and 50% lethal concentration (LC50) values were obtained from the percentage of inhibition/death versus log concentration of each compound, by nonlinear regression with variable slope and automatic withdrawal of outliers with ROUT coefficient (Q = 5). […] Graphpad Prism software version 7.04 was used for all regressions.

Series [2] concerns amastigotes of T. cruzi (Dm28c). Set-up: method as in PMID 32327956. As to conditions: 24 h of treatment; cited from earlier work.
A further series can be described thus: Cytotoxicity assay (MTT). Type of series: cell-based. As to conditions: African green monkey (Cercopithecus aethiops), Vero cells (CCL-81); 4 h of treatment; read-out: Vero cells (CCL-81) CC50 - 4h (CI). The procedure: Vero cells (CCL-81) isolated from the kidney of the African green monkey Cercopithecus aethiops were purchased from ATCC® (Washington DC, USA). The cells were inoculated in 200 μL of Dulbecco’s modified Eagle (DMEM) medium in 96-well plates at a concentration of 2 × 10^4 cells/well and incubated at 37°C for 24 h for adherence of the cells. Six different concentrations of the compounds (12 to 900 μM for butanolides, and 200 to 1,600 μM for benznidazole) were added to the wells. After 4 or 24 h of treatment, the cells were washed and cell viability was assessed using MTT (3-(4,5-Dimethylthiazol-2-yl)-2,5-Diphenyltetrazolium Bromide) assay (2 mg/mL). After 4 h of incubation at 37°C in a CO2 atmosphere, the wells were washed and 100% DMSO was added to solubilize the formazan crystals. The absorbance was measured at 570 nm using an ELISA plate reader (Biotek Model EL-800, VT, USA). DMSO (1%) treatment served as negative control and benznidazole treatment served as positive control.
as §1

Series [3] relates to amastigotes and trypomastigotes. As to the kind of experiment: Ultrastructural analysis by transmission and scanning electron microscopy. The format is cell-based, Trypanosoma cruzi. The procedure:
Trypomastigotes were incubated with isoobtusilactone A (LC50/4 h of trypomastigote) for 2 h. The parasites were washed with cacodylate buffer (0.1 M) and fixed in cacodylate buffer (0.1 M) containing paraformaldehyde (4%) and glutaraldehyde (2.5%). The cells were then adhered to glass cover slips previously coated with poly-L-lysine, postfixed with osmium tetroxide (1%), dehydrated with graded ethanol series, and dried using a critical point dryer (Leica CPD 300). Finally, the samples were coated with a layer of gold in a sputtering device (Leica EM ACE 200).
The cells were fixed, dehydrated, and dried following the same procedure described above. Cell membrane of the host cells was randomly removed with the aid of an adhesive tape and the resulting samples were coated with a layer of gold in a sputtering device (Leica EM ACE 200).
Trypomastigotes were treated following the same procedure as described for scanning microscopy. After treatment, the cells were washed with cacodylate buffer (0.1 M) and fixed in cacodylate buffer (0.1 M) containing paraformaldehyde (4%) and glutaraldehyde (2.5%).
All samples were postfixed in osmium tetroxide (1%), dehydrated with acetone series, and embedded in EMbed 812® resin. […]

The test system of series [4] is amastigotes of T. cruzi (Dm28c). The experiment in a line: Antiproliferative assay on intracellular amastigotes in Vero host cells. The format is cell-based, Trypanosoma cruzi. How it is done:
To determine the antiproliferative effect of butanolides on intracellular amastigote forms (Dm28c), Vero cells were used as host cells. Vero cells were cultured in DMEM and maintained in a CO2 atmosphere at 37°C.
After 4 h of incubation for adherence and infection, the cells were washed with 1x phosphate buffered saline (PBS) and then incubated in DMEM for 20 h to allow differentiation of internalized trypomastigotes into amastigotes.
Vero cells infected with amastigotes were incubated for 4 or 24 h with the compounds (4 concentrations within the range 4–200 μM) in DMEM. After incubation, the cells were washed, fixed in methanol, stained with 4',6-Diamidino-2-phenylindole (DAPI), and photographed using Leica DMI 6000-B fluorescence microscope. The photos obtained were analyzed using the software ImageJ version 1.5 for quantification of total Vero cells and determination of the percentage of infected cells and number of amastigotes per cell. The 50% inhibitory concentration (IC50) was calculated using the infectivity index (II) described by Ceole et al.. DMSO (1%) treatment served as negative control and benznidazole treatment served as positive control.
as §1

Series [5] relates to epimastigote forms of CL Brener (TcVI). The experiment in a line: Epimastigote cell viability assay (MTS/PMS), CL Brener. The format is cell-based, Trypanosoma cruzi. How it is done: (§2) Epimastigote forms of three strains of T. cruzi, including Dm28c (TcI), CL Brener (TcVI), and Y strain (TcII), were maintained in liver infusion tryptose (LIT) medium supplemented with 10% fetal bovine serum at 28°C [16] were kindly provided by Oswaldo Cruz Institute/Fiocruz. For the experiments, exponential phase cultures were used. All assays were performed in triplicates in 96-well plates.
(§3) The absorbance of the formazan was measured at 490 nm using a microplate reader (Asys Expert Plus -Biochrom). In parallel, we determined the effect of 1% DMSO (negative control) and benznidazole (positive control) on the viability of epimastigotes and a replicate of each treatment was performed by fixing the epimastigotes with 4% paraformaldehyde prior to the addition of MTS/PMS (basal absorbance control).
as §1

The subject of series [6] is epimastigote forms of Y strain (TcII). As to the kind of experiment: Epimastigote cell viability assay (MTS/PMS), Y strain. The format is cell-based, Trypanosoma cruzi. The procedure: as §2, §3, §1

Structures are written as SMILES.

This is an account of results in PMC7842926, “Synergistic effect and ultrastructural changes in Trypanosoma cruzi caused by isoobtusilactone A in short exposure of time” (PLoS ONE, 2021).

By LC50 is commonly meant the concentration that kills 50% of the test population. Broadly, the CC50 is the concentration at which the toxic effect on the cells reaches its halfway point. For orientation: IC50 means the concentration that gives 50% inhibition. In the case of `C=C1OC(=O)/C(=C/CCCCCCCCCCCCC)[C@@H]1O` [Isoobtusilactone A, isoobtusilactone A], in series [1] (Trypanosoma cruzi, 4 h of treatment, read-out: LC50 against trypomastigote forms (Dm28c)), the LC50 was found to be 30.1 µM. Besides, the “SI (selectivity index)” value came out at 12.34 in series [1] (trypomastigotes Dm28c, 4 h, Vero cells); 6.81 in series [4] (Vero CC50 versus amastigote IC50, 24 hours); 17.88 in series [4] (amastigotes, 4 h, Vero cells); 6.0 in series [5] (epimastigotes strain CL Brener, 4 h, Vero cells); 11.4 in series [6] (epimastigotes strain Y, 4 h, Vero cells). In addition, the “inhibition of growth of amastigote forms” value in series [2] is on record as “more than 70%”. The CC50 at 4 h in the series “Cytotoxicity assay (MTT)” is 371 µM. For the same compound, the “ultrastructure of treated intracellular amastigotes (TEM)” value in series [3] (LC50/4 h of amastigotes, 4 h) was “strong and acute damage to the unique mitochondria”. For the same compound, the “ultrastructure of treated trypomastigotes (TEM)” value in series [3] (LC50/4 h of trypomastigote, 2 h) is “swelling and loss of internal content of mitochondria”. Further, the concentration for half-maximal inhibition (IC50) in series [4] (Trypanosoma cruzi, Vero, 24 hours of treatment, confidence interval in brackets, read-out: Amastigotes (Dm28c) IC50 (CI)) is 23 µM; in series [5] (Trypanosoma cruzi, 4 h of treatment, read-out: IC50 epimastigotes strain CL Brener), 61.7 µM; in series [6] (Trypanosoma cruzi, 4 h of treatment, read-out: IC50 epimastigotes strain Y), 32.3 µM.
